Series [1] deals with Genome polyprotein (dengue virus type 2) (UniProt P29990). Description: Inhibition of Dengue virus serotype 2 NS2B-NS3 protease expressed in Escherichia coli BL21 lambda (DE3) cells at 50 uM using Abz-Nle-Lys-Arg-Arg-Ser-3-(NO2)Tyr as substrate preincubated for 15 mins followed by substrate addition and measured for 15 mins by FRET assay relative to control.
For series [2], the target named is T1, Genome polyprotein (dengue virus type 2, UniProt P29990). Description: Inhibition of Dengue virus serotype 2 NS2B-NS3 protease expressed in Escherichia coli BL21 lambda (DE3) cells using Abz-Nle-Lys-Arg-Arg-Ser-3-(NO2)Tyr as substrate preincubated for 15 mins followed by substrate addition and measured for 15 mins by FRET assay.
The target in series [3] is Genome polyprotein (West Nile virus) (UniProt P06935). Description: Inhibition of West Nile virus NS2B-NS3 protease expressed in Escherichia coli BL21 lambda (DE3) cells at 50 uM using Abz-Gly-Leu-Lys-Arg-Gly-Gly-3-(NO2)Tyr as substrate preincubated for 15 mins followed by substrate addition measured for 15 mins by fluorimetric analysis relative to control.
Sequence of Genome polyprotein (West Nile virus) (P06935 whole entry): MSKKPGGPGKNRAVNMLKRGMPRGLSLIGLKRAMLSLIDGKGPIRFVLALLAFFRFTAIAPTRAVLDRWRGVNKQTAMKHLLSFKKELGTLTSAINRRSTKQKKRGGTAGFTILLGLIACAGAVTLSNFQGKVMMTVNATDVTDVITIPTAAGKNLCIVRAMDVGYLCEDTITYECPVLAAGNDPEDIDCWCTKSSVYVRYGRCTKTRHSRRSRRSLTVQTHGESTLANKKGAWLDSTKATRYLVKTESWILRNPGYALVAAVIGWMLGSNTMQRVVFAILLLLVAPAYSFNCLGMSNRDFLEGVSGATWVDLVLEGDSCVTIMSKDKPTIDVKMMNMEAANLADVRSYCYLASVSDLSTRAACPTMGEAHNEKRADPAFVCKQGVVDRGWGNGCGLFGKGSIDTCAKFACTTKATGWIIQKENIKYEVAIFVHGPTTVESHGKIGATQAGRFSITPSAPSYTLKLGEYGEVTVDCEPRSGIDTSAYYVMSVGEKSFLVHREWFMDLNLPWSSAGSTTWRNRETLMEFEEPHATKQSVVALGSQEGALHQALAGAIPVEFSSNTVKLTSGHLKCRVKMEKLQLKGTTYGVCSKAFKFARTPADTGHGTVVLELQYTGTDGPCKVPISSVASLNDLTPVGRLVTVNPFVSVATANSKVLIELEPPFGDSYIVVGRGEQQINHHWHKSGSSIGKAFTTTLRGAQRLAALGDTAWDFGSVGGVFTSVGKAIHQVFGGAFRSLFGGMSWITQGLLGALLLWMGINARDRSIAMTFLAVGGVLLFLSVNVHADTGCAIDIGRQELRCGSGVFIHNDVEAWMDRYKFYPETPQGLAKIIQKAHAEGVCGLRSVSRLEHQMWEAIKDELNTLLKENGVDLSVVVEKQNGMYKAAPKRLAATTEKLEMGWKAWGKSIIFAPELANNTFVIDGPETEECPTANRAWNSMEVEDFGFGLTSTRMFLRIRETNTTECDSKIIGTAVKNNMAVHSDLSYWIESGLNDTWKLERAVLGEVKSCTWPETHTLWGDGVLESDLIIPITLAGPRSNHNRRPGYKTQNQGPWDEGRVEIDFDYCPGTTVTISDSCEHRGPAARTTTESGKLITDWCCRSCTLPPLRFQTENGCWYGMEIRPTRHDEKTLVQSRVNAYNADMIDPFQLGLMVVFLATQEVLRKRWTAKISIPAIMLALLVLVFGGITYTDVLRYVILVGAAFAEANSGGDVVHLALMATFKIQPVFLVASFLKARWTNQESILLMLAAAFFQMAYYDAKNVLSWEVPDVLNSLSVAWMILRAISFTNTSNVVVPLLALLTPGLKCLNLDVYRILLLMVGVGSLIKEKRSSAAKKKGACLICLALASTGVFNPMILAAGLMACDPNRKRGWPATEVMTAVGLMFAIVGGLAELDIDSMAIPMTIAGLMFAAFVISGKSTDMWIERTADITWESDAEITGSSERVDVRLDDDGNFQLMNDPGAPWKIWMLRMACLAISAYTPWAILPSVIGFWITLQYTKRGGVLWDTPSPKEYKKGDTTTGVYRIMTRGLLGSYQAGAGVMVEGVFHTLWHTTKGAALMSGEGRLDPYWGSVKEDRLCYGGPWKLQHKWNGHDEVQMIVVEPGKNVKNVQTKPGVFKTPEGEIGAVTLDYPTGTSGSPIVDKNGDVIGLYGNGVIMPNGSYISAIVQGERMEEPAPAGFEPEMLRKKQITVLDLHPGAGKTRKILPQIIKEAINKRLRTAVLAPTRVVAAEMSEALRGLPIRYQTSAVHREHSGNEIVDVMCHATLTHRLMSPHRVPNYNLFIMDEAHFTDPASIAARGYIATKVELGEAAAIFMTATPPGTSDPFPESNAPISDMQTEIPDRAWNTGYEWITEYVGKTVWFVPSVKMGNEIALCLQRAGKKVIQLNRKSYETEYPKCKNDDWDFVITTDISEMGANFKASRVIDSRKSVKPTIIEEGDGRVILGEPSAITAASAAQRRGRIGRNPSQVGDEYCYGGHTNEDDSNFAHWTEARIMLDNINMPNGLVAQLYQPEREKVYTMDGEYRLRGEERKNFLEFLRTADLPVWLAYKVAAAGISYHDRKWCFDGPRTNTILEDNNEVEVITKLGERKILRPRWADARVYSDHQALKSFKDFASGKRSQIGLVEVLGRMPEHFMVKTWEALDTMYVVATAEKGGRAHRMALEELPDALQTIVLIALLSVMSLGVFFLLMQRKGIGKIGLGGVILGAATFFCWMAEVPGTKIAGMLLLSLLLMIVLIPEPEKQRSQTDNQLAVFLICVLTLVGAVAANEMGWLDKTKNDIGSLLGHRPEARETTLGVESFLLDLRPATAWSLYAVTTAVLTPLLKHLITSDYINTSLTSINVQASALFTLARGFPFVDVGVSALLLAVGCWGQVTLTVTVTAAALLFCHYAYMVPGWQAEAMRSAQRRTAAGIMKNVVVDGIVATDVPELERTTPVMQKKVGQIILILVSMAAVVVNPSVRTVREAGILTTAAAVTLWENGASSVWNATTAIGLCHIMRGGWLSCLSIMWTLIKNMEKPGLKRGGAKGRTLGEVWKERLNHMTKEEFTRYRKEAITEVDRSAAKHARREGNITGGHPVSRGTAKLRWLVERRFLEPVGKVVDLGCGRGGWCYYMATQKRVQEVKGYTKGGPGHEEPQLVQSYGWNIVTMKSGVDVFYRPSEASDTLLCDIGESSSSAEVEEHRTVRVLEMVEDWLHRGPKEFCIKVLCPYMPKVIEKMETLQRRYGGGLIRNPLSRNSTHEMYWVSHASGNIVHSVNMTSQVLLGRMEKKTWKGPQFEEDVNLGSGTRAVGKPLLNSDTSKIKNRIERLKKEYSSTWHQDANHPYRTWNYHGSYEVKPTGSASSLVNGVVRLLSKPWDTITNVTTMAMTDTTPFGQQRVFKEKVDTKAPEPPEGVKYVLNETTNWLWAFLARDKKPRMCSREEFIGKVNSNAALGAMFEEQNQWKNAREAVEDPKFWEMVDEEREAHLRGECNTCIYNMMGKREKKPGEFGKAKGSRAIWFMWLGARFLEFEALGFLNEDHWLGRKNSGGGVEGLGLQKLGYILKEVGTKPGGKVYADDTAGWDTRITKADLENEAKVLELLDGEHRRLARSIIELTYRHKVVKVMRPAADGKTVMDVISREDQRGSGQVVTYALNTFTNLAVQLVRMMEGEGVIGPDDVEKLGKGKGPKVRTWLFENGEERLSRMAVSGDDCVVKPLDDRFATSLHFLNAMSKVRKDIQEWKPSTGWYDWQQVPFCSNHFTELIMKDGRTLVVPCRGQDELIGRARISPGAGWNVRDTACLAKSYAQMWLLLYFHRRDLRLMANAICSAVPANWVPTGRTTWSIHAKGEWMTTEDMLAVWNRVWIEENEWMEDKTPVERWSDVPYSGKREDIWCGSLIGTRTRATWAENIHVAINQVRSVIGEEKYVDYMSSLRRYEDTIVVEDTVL
The target of series [4] is T2, Genome polyprotein (West Nile virus, UniProt P06935). Description: Inhibition of West Nile virus NS2B-NS3 protease expressed in Escherichia coli BL21 lambda (DE3) cells using Abz-Gly-Leu-Lys-Arg-Gly-Gly-3-(NO2)Tyr as substrate preincubated for 15 mins followed by substrate addition measured for 15 mins by fluorimetric analysis.
T2 sequence (P06935 1371-1501 limits assumed): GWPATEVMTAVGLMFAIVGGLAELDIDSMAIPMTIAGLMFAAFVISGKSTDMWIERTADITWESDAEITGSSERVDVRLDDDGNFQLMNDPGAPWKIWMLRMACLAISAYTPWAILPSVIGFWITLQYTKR
T2 sequence (P06935 1502-2120 limits assumed): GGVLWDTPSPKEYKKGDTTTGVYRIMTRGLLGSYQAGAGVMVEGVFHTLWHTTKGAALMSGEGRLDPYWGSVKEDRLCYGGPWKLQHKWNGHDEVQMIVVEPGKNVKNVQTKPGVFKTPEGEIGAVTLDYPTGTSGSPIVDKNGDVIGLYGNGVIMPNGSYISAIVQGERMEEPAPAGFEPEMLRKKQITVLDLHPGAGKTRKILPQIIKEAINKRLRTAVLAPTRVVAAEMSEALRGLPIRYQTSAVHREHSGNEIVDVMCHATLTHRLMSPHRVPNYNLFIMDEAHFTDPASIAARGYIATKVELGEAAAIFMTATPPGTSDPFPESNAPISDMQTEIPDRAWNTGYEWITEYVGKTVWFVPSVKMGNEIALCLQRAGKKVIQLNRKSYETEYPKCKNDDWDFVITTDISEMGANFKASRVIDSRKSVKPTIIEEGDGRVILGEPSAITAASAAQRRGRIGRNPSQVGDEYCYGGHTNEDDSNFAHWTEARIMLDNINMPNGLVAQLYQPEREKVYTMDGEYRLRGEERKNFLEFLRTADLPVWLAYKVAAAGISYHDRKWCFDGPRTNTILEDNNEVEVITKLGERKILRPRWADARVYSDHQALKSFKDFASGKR
In series [5] the target is Genome polyprotein (dengue virus type 2) (UniProt P29990). Description: Inhibition of Dengue virus serotype 2 NS2B-NS3 protease transfected in human HeLa cells at 12.5 uM measured after 24 hrs by Renilla-luciferase reporter gene assay relative to control. In kind it is cell-based. In general terms: A reporter such as luciferase makes a cellular process visible.
Series [6] concerns the target T1, Genome polyprotein. Description: Inhibition of Dengue virus serotype 2 NS2B-NS3 protease transfected in human HeLa cells measured after 24 hrs by Renilla-luciferase reporter gene assay. It is filed as cell-based.
A short description of series [7]: Cytotoxicity against human HeLa cells assessed as reduction in cell viability measured after 24 hrs by celltiter-blue assay. In kind it is cell-based. For orientation: Resazurin is reduced to fluorescent resorufin, in cell work by metabolically active cells.
Series [8] deals with Trypsin (Homo sapiens, UniProt P07477+P07478+P35030). Description: Inhibition of trypsin (unknown origin) at 50 uM using Boc-Val-Pro-Arg-AMC as substrate preincubated for 15 mins followed by substrate addition and measured for 15 mins by fluorimetric assay relative to control. The settings on record: 0.25 h, 50 µM. In kind it is protein assay.
Series [9] deals with Prothrombin (Homo sapiens, UniProt P00734). Description: Inhibition of thrombin (unknown origin) at 25 uM using Boc-Val-Pro-Arg-AMC as substrate preincubated for 15 mins followed by substrate addition and measured for 15 mins by fluorimetric assay. As to conditions: 0.25 h.
The target of series [10] is Genome polyprotein (dengue virus type 2) (UniProt P29990). Description: Competitive inhibition of Dengue virus serotype 2 NS2B-NS3 protease expressed in Escherichia coli BL21 lambda (DE3) cells using varying levels of Abz-Nle-Lys-Arg-Arg-Ser-3-(NO2)Tyr as substrate by Cheng-Prusoff plot analysis.
Series [11] addresses Genome polyprotein (West Nile virus) (UniProt P06935). Description: Competitive inhibition of West Nile virus NS2B-NS3 protease expressed in Escherichia coli BL21 lambda (DE3) cells using varying levels of Abz-Gly-Leu-Lys-Arg-Gly-Gly-3-(NO2)Tyr as substrate by Cheng-Prusoff plot analysis.
A short description of series [12]: Drug metabolism in pH 7.4 phosphate buffered saline assessed as racemization incubated for 96 hrs at 37 degC RP-HPLC analysis. It is filed as physicochemical. The settings on record: buffer, pH 7.4, 96 h.
A short description of series [13]: Drug metabolism in pH 9 Tris-HCl buffer assessed as racemization incubated for 96 hrs at 37 degC RP-HPLC analysis. As to conditions: pH 9, 96 h. It is filed as physicochemical.
A short description of series [14]: Drug metabolism in pH 7 DENV2proHeLa medium assessed as racemization incubated for 96 hrs at 37 degC RP-HPLC analysis. As to conditions: pH 7, 96 h. It is filed as physicochemical.
The nature of series [15]: Drug metabolism in pH13 sodium hydroxide solution assessed as racemization incubated for 96 hrs at 37 degC RP-HPLC analysis. In kind it is physicochemical. As to conditions: pH 13, 96 h.
Series [16] in a line: Drug metabolism in pH13 sodium hydroxide solution assessed as racemization incubated for 96 hrs at room temperature RP-HPLC analysis. In kind it is physicochemical. The settings on record: pH 13, 96 h.
In series [17] the test system is Huh-7. Description: Cytotoxicity against human HuH7 cells assessed as reduction in cell viability at 12 uM measured after 48 hrs by celltiter-blue assay. In kind it is cell-based. The settings on record: huh-7, 48 h.
In series [18] the test system is dengue virus type 2. Description: Antiviral activity against DENV2 infected in human HuH7 cells assessed as reduction in virus titer at 10 uM measured after 48 hrs relative to control. As to conditions: Huh-7, 48 h. It is filed as functional.
Series [19] has as its system dengue virus type 2. Description: Antiviral activity against DENV2 infected in human HuH7 cells assessed as reduction in virus titer measured after 48 hrs. It is filed as functional, organism-based. The settings on record: Huh-7, 48 h.
Series [20] is described as follows: Permeability of the compound assessed as drug level in acceptor plate at 200 uM measured after 5 hrs at pH 7.4 by PAMPA. As to conditions: pH 7.4, 5 h. In kind it is ADME. On the technique in general: In PAMPA a lipid-coated filter parts donor from acceptor wells.
The nature of series [21]: Permeability of the compound assessed as drug level in donor plate at 200 uM measured after 5 hrs at pH 7.4 by PAMPA. In kind it is ADME. As to conditions: pH 7.4, 5 h.
Series [22] can be described thus: Permeability of the compound at 200 uM measured after 5 hrs at pH 7.4 by PAMPA. In kind it is ADME. The settings on record: read-out: permeability.
The nature of series [23]: Permeability of the compound assessed as mass retention at 200 uM measured after 5 hrs at pH 7.4 by PAMPA. It is filed as ADME. The settings on record: pH 7.4, 5 h.
In series [24] the target is Genome polyprotein (dengue virus type 2) (UniProt P29990). Description: Inhibition of Dengue virus serotype 2 NS2B-NS3 protease expressed in Escherichia coli BL21 lambda (DE3) cells at 50 uM using Abz-Nle-Lys-Arg-Arg-Ser-3-(NO2)Tyr as substrate preincubated for 15 mins followed by substrate addition and measured after 15 mins by HPLC analysis relative to control.
For series [25], the target named is T1, Genome polyprotein. Description: Inhibition of Dengue virus serotype 2 NS2B-NS3 protease expressed in Escherichia coli BL21 lambda (DE3) cells using Abz-Nle-Lys-Arg-Arg-Ser-3-(NO2)Tyr as substrate preincubated for 15 mins followed by substrate addition and measured after 15 mins by HPLC analysis.
Series [26] has as its target Genome polyprotein (West Nile virus) (UniProt P06935). Description: Inhibition of West Nile virus NS2B-NS3 protease expressed in Escherichia coli BL21 lambda (DE3) cells at 50 uM using Abz-Gly-Leu-Lys-Arg-Gly-Gly-3-(NO2)Tyr as substrate preincubated for 15 mins followed by substrate addition measured after 15 mins by HPLC analysis relative to control.
In series [27] the target is T2, Genome polyprotein. Description: Inhibition of West Nile virus NS2B-NS3 protease expressed in Escherichia coli BL21 lambda (DE3) cells using Abz-Gly-Leu-Lys-Arg-Gly-Gly-3-(NO2)Tyr as substrate preincubated for 15 mins followed by substrate addition measured after 15 mins by HPLC analysis.
Series [28] has as its target Genome polyprotein (dengue virus type 2) (UniProt P29990). Description: Inhibition of Dengue virus serotype 2 NS2B-NS3 protease expressed in Escherichia coli BL21 lambda (DE3) cells measured after 1 hr by tryptophan fluorescence quenching method.
For series [29] the target is unchanged. Description: Inhibition of Dengue virus serotype 2 NS2B-NS3 protease expressed in Escherichia coli BL21 lambda (DE3) cells at 50 uM measured after 1 hr in presence of DENV protease inhibitor aprotinin by tryptophan fluorescence quenching method.

These results are taken from ChEMBL document CHEMBL4619777, “A New Class of Dengue and West Nile Virus Protease Inhibitors with Submicromolar Activity in Reporter Gene DENV-2 Protease and Viral Replication Assays” (J Med Chem, 2020).

Each structure is given as a SMILES string. pEC50, pIC50, pKi: −log10 of the molar value. The source made the active and inactive calls.

Usually inhibition stands for the drop in the measured response relative to a control, in per cent. By pIC50 is commonly meant the IC50 on a negative log10 scale, so that one unit is a factor of ten. A lower pIC50 goes with a large IC50. In general, pKi refers to −log10 of the Ki, conventionally taken in molar units. Read a low pKi as a large Ki. In general, pEC50 refers to the EC50 on a negative log10 scale, so that one unit is a factor of ten. Usually CC50 stands for the concentration that lowers cell viability or growth by half.

For `CCCCCC(=O)N[C@H](C(=O)NCc1ccc(NC(=N)N)cc1)c1ccc(OCc2ccccc2)cc1.O=C(O)C(F)(F)F`, the values for the inhibition in series [1], in series [3] and in series [5] were 95.1%, 102% and 79.8%, respectively. The pIC50 in series [2] is 4.96; in series [4] it was 4.89. Further, the pKi in series [2] was 5.01; in series [4], 4.91 to 4.92. Moreover, the pEC50 in series [6] was 6.31; in series [19], 6.05. The CC50 at 24 h in series [7] was greater than 50 µM. Moreover, the “inhibition (INH)” value in [8] and in [9] was “Not Active” in each case. For the same molecule, the inhibition entry in series [10] and in series [11] was “Active” each time. The Drug metabolism entry was “Metabolite_Notdetected” in series [12]; “Metabolite_Notdetected” in series [13]; “Metabolite_Notdetected” in [14]; “Metabolite_Detected” in series [15]; “Metabolite_Detected” in series [16]. The Activity result in series [17] is “Non-Toxic”. Besides, in [18], the inhibition at 10 µM worked out at 84.5%. Further, the Drug uptake in [20] came to 7.5 µM; in series [21] it was 171 µM. Besides, the Papp at 5 h, 200 µM in [22] was determined as 16 nm/s. Also, the R% in series [23] was found to be 12%.
For `CCCCCCCC(=O)N[C@H](C(=O)NCc1ccc(NC(=N)N)cc1)c1ccc(OCc2ccccc2)cc1.O=C(O)C(F)(F)F`, the inhibition in series [1] was 100%; in series [3] it was 104%; in series [5], 71.4%. Besides, the pIC50 in [2] was 5.32; in [4] it was 4.96. Further, the pEC50 in [6] was 6.08; in [19], 5.14. Moreover, the CC50 at 24 h in [7] was greater than 50 µM. For the same molecule, the “inhibition (INH)” value in [8] and in [9] was “Not Active” throughout. Moreover, the Activity entry in series [17] was “Non-Toxic”. Besides, in series [18], the inhibition at 10 µM was determined as 57.7%. Besides, the Drug uptake in series [20] was found to be 1.5 µM; in series [21], 164.5 µM. Moreover, in series [22], the Papp at 5 h, 200 µM amounted to 3 nm/s. Moreover, the R% in series [23] worked out at 17.3%.
As for `N=C(N)Nc1ccc(CNC(=O)[C@@H](NC(=O)c2ccc(-c3cccs3)s2)c2ccc(OCc3ccccc3)cc2)cc1.O=C(O)C(F)(F)F`, the inhibition was 52.6% in [5], 99.7% in series [24], 93.6% in [26] and “Dose-dependent effect” in series [28]. For the same molecule, in [6], the pEC50 was 5.03. Also, in series [7], the CC50 at 24 h is greater than 50 µM. The pIC50 was 5.20 in [25] and 5.19 in [27]. Besides, the “inhibition (INH)” value in [8] and in series [9] was “Not Active” throughout. Besides, the inhibition result in series [29] was “inactive”.
